Data as given in patent US20230357300A1, “TRITERPENE SAPONIN SYNTHESIS, INTERMEDIATES AND ADJUVANT COMBINATIONS” (priority 2017, published 2023).

Columns and labels:
Stability at 37° C. = assay type: physicochemical; settings: for degradation: after two weeks at 37° C.
Method: (§1) Natural and synthetic QS-21 (SQS-21 or SAPONEX®) and a variety of analogs were tested for hemolytic activity. […] FIG. 5 depicts results a hemolytic assay performed with TiterQuil-1055. In a companion toxicity study three days after immunization, animals that received 20 mcg of QS-21 have lost 8-10% of their body mass on average, whereas PBS, TiterQuil-101 and TiterQuil-1055 recipients have gained 5% on average (normal weight gain in young mice). Without being bound by theory, hemolytic activity may be a direct result of degradation of QS-21 under physiologic conditions and TiterQuil-1055′s lack of hemolytic activity may result from improved stability.

mice [1] = assay type: in vivo; settings: for changes in blood chemistry or hematology results: mice vaccinated SC days 1 and 15; for weight loss (body weight): mice, 50 mcg TiterQuil-1055, 20 mcg QS-21; for liver histopathology (hepatocellular cytoplasmic vacuolization / vacuolar changes): sacrificed day 22, 33 tissues examined
Method: (§2) Adacel doses containing 1, 0.3, and 0.1 mcg of pertussis toxin per mouse were administered subcutaneously (SC, with no immunological adjuvant), using 2 vaccinations 4 weeks apart, resulting in a mean of 1,618 mcg, 898 mcg, and 107 mcg respectively of anti-PT antibody per ml of serum drawn 2 weeks after the second vaccination. The 0.1 mcg dose was indistinguishable from unvaccinated controls (96 mcg/ml). A 0.5 mcg dose of Adacel was selected for a pharmacology/toxicology (pharm/tox) study. The serological results for this study are summarized in FIG. 3 of the present application.
A pharm/tox study was conducted in 7 groups of 5 mice: 1) PBS alone, 2) 50 mcg TiterQuil-1055, 3) 20 mcg QS-21, 4) Adacel 2.5 mcg pertussis toxin (⅕ the human dose), 5) Adacel + QS-21 (20 mcg QS-21), 6) Adacel + TiterQuil-1055 (50 mcg), 7) Adacel + TiterQuil-1055 (50 mcg). Mice were vaccinated SC on days 1 and 15, weighed daily, and bled and sacrificed on day 22, except for group 7 which was sacrificed on day 29. […] Histopathology of 33 different tissues was performed on all mice. Detected abnormalities were restricted to the liver. […] This abnormality was short lived and was no detected in group 7, which was sacrificed one week after groups 1-6.

hemolysis = assay: Hemolytic assay; assay type: cell-based
Method: FIG. 5 depicts data showing the hemolytic activity of QS-21 at 2uM, 5uM and 20uM, and Compound 26 (TiterQuil-1-0-5-5 / TQL-1055) at 20uM, 100uM and 200uM. % Hemolytic activity reported as % of Triton-X100/SDS lysis control.
as §1

[2] = Companion toxicity study, body mass three days after immunization; assay type: in vivo, mice
Method: as §1

[3] = cited from earlier work
mice [4] = assay: Adacel (Tdap vaccine) immunogenicity in mice, anti-PT antibody in serum; assay type: in vivo; settings: for augmentation of antibody levels compared to immunization with Adacel alone: 2 weeks after second SC immunization, adjuvant given with Adacel
Method: as §2

[5] = Body weight of mice in the Engerix-B / TiterQuil-1055 dose study; assay type: in vivo
Method: (§3) Experiments were conducted with Engerix-B (HBV adult vaccine) in groups of 10 mice. Initially 3 mcg, 1 mcg, 0.3 mcg, 0.1 mcg, and 0.03 mcg Engerix-B doses per mouse were tested. Mean resulting anti-HBsAg antibody levels were 92,512 mcg/ml, 64,255 mcg/ml, 24,847 mcg/ml, 3,682 mcg/ml, and 910 mcg/ml respectively, with the 0.03 dose being indistinguishable from controls (821 mcg/ml). The 0.3 mcg dose of Engerix-B was selected for further studies and this dose was used mixed with various doses of TiterQuil-1055 (TQL-1055 / Compound I-4). The resulting geometric mean antibody concentrations are summarized in FIG. 4 of the present application.

mice [6] = assay: Engerix-B (hepatitis B vaccine) immunogenicity in mice, anti-HBsAg antibody; assay type: in vivo
Method: as §3

[7] = 50 mcg TiterQuil-1055, 20 mcg QS-21, Adacel 2.5 mcg pertussis toxin

Molecule: QS-21 [reference compound]
- degradation (Stability at 37° C.): 20%
- changes in blood chemistry or hematology results (mice [1]; [7]): No changes
- weight loss (body weight) (mice [1]): 8-9%
- liver histopathology (hepatocellular cytoplasmic vacuolization / vacuolar changes) (mice [1]; [7]): Mild vacuolar changes
- hemolytic activity (hemolysis): highly hemolytically active
- body mass lost on average ([2]; 20 mcg QS-21): 8-10%
- tolerated (maximum) dose in cancer patients ([3]; cancer patients, above it local and systemic side effects): 100 to 150 µg
- maximum dose for healthy patients ([3]; healthy patients): ~50 µg
- highest practical tolerable dose ([3]; well (non-cancer) adult and child recipients): 25 to 50 µg
- augmentation of antibody levels compared to immunization with Adacel alone (mice [4]; groups of 5 mice): 10 fold

Molecule: CC1O[C@@H](OC2C(O)[C@@H](NC(=O)CCCCCCCCCCC(=O)O)C(CO)O[C@H]2OC(=O)[C@]23CCC(C)(C)CC2C2=CCC4C5(C)CC[C@H](O)C(C)(C=O)[C@@H]5CC[C@@]4(C)C2(C)CC3O)C(O)C(O)[C@H]1O[C@@H]1OC[C@@H](O)C(O)C1O (stereo partly shown) [TiterQuil-1055]
- degradation (Stability at 37° C.): without detectable degradation
- stability (Stability at 37° C.; compared with QS-21): increased stability
- weight loss (mice [1]; mice vaccinated SC days 1 and 15, weighed daily, 50 mcg TiterQuil-1055, 20 mcg QS-21, Adacel 2.5 mcg pertussis toxin): no other mice
- changes in blood chemistry or hematology results (mice [1]; [7]): No changes
- weight loss (body weight) (mice [1]): No weight loss
- liver histopathology (hepatocellular cytoplasmic vacuolization / vacuolar changes) (mice [1]; [7]): No changes at all
- hemolytic activity (hemolysis): much lower or undetectable hemolytic activity
- weight loss ([5]; 30 mcg TiterQuil-1055 dose): No weight loss
- weight loss ([5]; 100 mcg TiterQuil-1055 dose): 4%
- weight loss ([5]; 300 mcg TiterQuil-1055 dose): 5%
- increase in antibody levels compared to Engerix-B alone (mice [6]; 10 mcg TiterQuil-1055 mixed with 0.3 mcg Engerix-B): no serologic effect
- increase in antibody levels compared to Engerix-B alone (mice [6]; 30 mcg TiterQuil-1055 mixed with 0.3 mcg Engerix-B): > 6 fold
- increase in antibody levels compared to Engerix-B alone (mice [6]; 100 mcg TiterQuil-1055 mixed with 0.3 mcg Engerix-B): 5 fold
- antibody response at high adjuvant doses (mice [6]; TiterQuil-1055 doses above 50 mcg per mouse): Lack of antibody increase or decreasing responses
- body mass gained on average [2]: 5%
- antibody levels 2 weeks later (mice [4]; Adacel with TiterQuil-1055, 2 weeks after the first reading): further increased
- augmentation of antibody levels compared to immunization with Adacel alone (mice [4]; groups of 5 mice): 70 fold
- antibody levels 2 weeks after the second SC immunization (mice [4]; pharm/tox study, groups of 5 mice, Adacel alone or Adacel with TiterQuil-1055): 52,344
